We go through ten compounds from US8580825B2, “Oxadiazole inhibitors of leukotriene production” (Boehringer Ingelheim International GmbH, priority 2010, dated 2013).

Assay [1] deals with T1, recombinant human FLAP protein (Homo sapiens, UniProt P20292).
T1 construct: made in house; host or cells: Sf9 insect cells (100,000xg membrane fraction used)
T1 sequence (P20292 1-161): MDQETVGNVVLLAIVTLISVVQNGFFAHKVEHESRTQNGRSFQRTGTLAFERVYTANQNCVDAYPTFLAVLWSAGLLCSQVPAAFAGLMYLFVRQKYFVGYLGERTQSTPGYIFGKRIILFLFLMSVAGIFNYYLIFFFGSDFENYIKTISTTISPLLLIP
Briefly: FLAP binding assay (Scintillation Proximity Assay, displacement of [125I]L-691,831). The settings on record: read-out: FLAP SPA IC50. In short, it runs like this: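 Scintillation proximity displacement of [125I]L-691,831 (0.08 nM) from membranes of sf9 cells expressing recombinant human FLAP (5 μg/well) on WGA SPA beads, pH 7.5 Tris buffer. Plates shaken 2 h before counting. Non-specific binding defined with 10 μM unlabelled L-691,831.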

Assay [2] concerns synthesis of LTB4 in human whole blood. Briefly: human whole blood LTB4 production inhibition assay. The settings on record: calcimycin stimulated, read-out: hWB LTB4 IC50. Format: cell-based. In short, it runs like this: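 LTB4 levels in plasma were measured by antibody-based HTRF after heparinized human whole blood, pretreated with compound (15 min, 37° C), was challenged with 20 μM calcimycin for 30 min at 37° C.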

The term IC50 denotes the concentration needed to halve the response being measured. As to `CC(C)[C@](C)(c1ccc(-c2cnc(N)nc2)nc1)c1noc(-c2cnn(C3CCS(=O)(=O)C3)c2)n1` (stereo partly drawn) [Example 96, 5-[5-((R)-1-{5-[1-(1,1-Dioxo-tetrahydro-116-thiophen-3-yl)-1H-pyrazol-4-yl]-[1,2,4]oxadiazol-3-yl}-1,2-dimethyl-propyl)-pyridin-2-yl]-pyrimidin-2-ylamine], the IC50 was 9.9 nM in assay [1] and 240 nM in assay [2].

Turning to `CC(C)[C@](C)(c1ccc(-c2cnc(N)nc2)nc1)c1noc(-c2cnn(CCN(C)C)c2)n1` [Example 97, 5-[5-((R)-1-{5-[1-(2-Dimethylamino-ethyl)-1H-pyrazol-4-yl]-[1,2,4]oxadiazol-3-yl}-1,2-dimethyl-propyl)-pyridin-2-yl]-pyrimidin-2-ylamine], the 50% inhibitory concentration (IC50) in assay [1] was determined as 7.9 nM; in assay [2], 30 nM.

As for `CC(c1ccc(-c2ccc(N)nc2)nc1)(c1noc(-c2cn[nH]c2)n1)C1CC1` (centres unmarked) [Example 98, 5-{1-Cyclopropyl-1-[5-(1H-pyrazol-4-yl)-[1,2,4]oxadiazol-3-yl]-ethyl}-[2,3′]bipyridinyl-6′-ylamine], the IC50 worked out at 26 nM in assay [1] and 500 nM in assay [2].

Consider `CN(C)CCn1cc(-c2nc([C@@](C)(c3ccc(-c4cnc(N)nc4)nc3)C3CC3)no2)cn1` [Example 99, 5-[5-((R)-1-Cyclopropyl-1-{5-[1-(2-dimethylamino-ethyl)-1H-pyrazol-4-yl]-[1,2,4]oxadiazol-3-yl}-ethyl)-pyridin-2-yl]-pyrimidin-2-ylamine], for which the IC50 was 32 nM in assay [1] and 150 nM in assay [2].

Regarding `CC(C)(O)Cn1cc(-c2nc([C@@](C)(c3ccc(-c4cnc(N)cn4)nc3)C3CC3)no2)cn1` [Example 100, 1-[4-(3-{(R)-1-[6-(5-Amino-pyrazin-2-yl)-pyridin-3-yl]-1-cyclopropyl-ethyl}-[1,2,4]oxadiazol-5-yl)-pyrazol-1-yl]-2-methyl-propan-2-ol], the values for the half-maximal inhibitory concentration (IC50) in assay [1] and in assay [2] were 53 nM and 210 nM, respectively.

Consider `CC(C)(O)Cn1cc(-c2nc([C@](C)(c3ccc(-c4cnc(N)cn4)nc3)C3CC3)no2)cn1` [Example 101, 1-[4-(3-{(S)-1-[6-(5-Amino-pyrazin-2-yl)-pyridin-3-yl]-1-cyclopropyl-ethyl}-[1,2,4]oxadiazol-5-yl)-pyrazol-1-yl]-2-methyl-propan-2-ol], for which the IC50 was 280 nM in assay [1] and 990 nM in assay [2].

In the case of `CC(C)(C)NC(=O)Cn1cc(-c2nc([C@@](C)(c3ccc(-c4cnc(N)nc4)nc3)C3CC3)no2)cn1` [Example 102, 2-[4-(3-{(R)-1-[6-(2-Amino-pyrimidin-5-yl)-pyridin-3-yl]-1-cyclopropyl-ethyl}-[1,2,4]oxadiazol-5-yl)-pyrazol-1-yl]-N-tert-butyl-acetamide], the results for the IC50 in assay [1] and in assay [2] were 13 nM and 89 nM, respectively.

As for `COCCn1cc(-c2nc([C@@](C)(c3ccc(-c4cnc(N)cn4)nc3)C(C)C)no2)cn1` [Example 104, 5-[5-((R)-1-{5-[1-(2-Methoxy-ethyl)-1H-pyrazol-4-yl]-[1,2,4]oxadiazol-3-yl}-1,2-dimethyl-propyl)-pyridin-2-yl]-pyrazin-2-ylamine], the figures for the half-inhibitory concentration (IC50) in assay [1] and in assay [2] were 5.7 nM and 17 nM, respectively.

With `CC(C)[C@](C)(c1ccc(-c2cnc(N)cn2)nc1)c1noc(-c2cnc(N3CCNCC3)cn2)n1` [Example 105, 5-(5-{(R)-1,2-Dimethyl-1-[5-(3,4,5,6-tetrahydro-2H-[1,2′]bipyrazinyl-5′-yl)-[1,2,4]oxadiazol-3-yl]-propyl}-pyridin-2-yl)-pyrazin-2-ylamine], the IC50 was found to be 7.8 nM in assay [1] and 450 nM in assay [2].

Turning to `CN(C(=O)Cn1cc(-c2nc([C@@](C)(c3ccc(-c4cnc(N)nc4)nc3)C3CC3)no2)cn1)C(C)(C)C` [Example 106, 2-[4-(3-{(R)-1-[6-(2-Amino-pyrimidin-5-yl)-pyridin-3-yl]-1-cyclopropyl-ethyl}-[1,2,4]oxadiazol-5-yl)-pyrazol-1-yl]-N-tert-butyl-N-methyl-acetamide], the figures for the 50% inhibitory concentration (IC50) in assay [1] and in assay [2] were 10 nM and 30 nM, respectively.
